Laboratory results taken from EP0605261B1, “Use of a flavone derivative as taste modifier and a method of modifying taste” (SAN-EI GEN F.F.I., INC., priority 1992, dated 1994).

Experiments:
[1] = Sensory test: savor (hard candy); type: in vivo; conditions: hard candy with Aspartame; 0.0001 w/w%; 10 panellers
Protocol: Compound 10 of the flavone derivative (I) was used as a taste modifier, and 22.5 w/w% thick malt syrup of reducing maltose, 22.5 w/w% reducing starch saccharide and 0.08 w/w% of Aspartame were used as sweetening agents. In accordance with a general method, hard candy containing 0.0001 w/w% of the flavone derivative (I) and flavone derivative (I) free hard candy were prepared. Sensory tests for the savor were conducted by 10 panellers comprised of 6 males and 4 females at the age from 20 to 40.

[2] = Sensory test (limiting method): enhancing the sourness of acid sugar solution; type: in vivo; design: key: (equivalent citric acid content / citric acid content with flavone) × 100; conditions: citric acid 1.000 (g), flavone derivative (I) 0.00001 (g), 8 panellers
Protocol: Compounds 1 to 11 of the flavone derivative (I) were used as a taste modifier to prepare acid sugar solution having compositions as follows:
As a control, 21 types of acid sugar solutions are used. In the control, the flavone derivative (I) is removed from the above composition and the content of citric acid is varied from 1.000 g to 1.500 g by 0.025 g.
Sensory tests were carried out by 8 trained panellers in accordance with a limiting method described in the Hand Book of Sensory evaluation, edited by Research Committee of sensory evaluation, Union of Japanese Scientists and Engineers, p.398 (1973) in use of acid sugar solutions containing respective flavone derivatives (I) and another acid sugar solutions having a various content of citric acid.
As for the content of citric acid, two types sensory tests were conducted, one was an ascending system (testing from solution with low concentration) and another was a descending system (testing from solution with high concentration).
The sensory evaluation was made by a value of enhancing the sourness. The value of enhancing the sourness was calculated by the following formula based on the content of citric acid in acid sugar solutions with varied concentration of citric acid, which has an equivalent stimulation with an acid sugar solution containing the flavone derivative (I) Value of enhancing the sourness = (content of citric acid in acid sugar solution sensed as an equivalent stimulation/content of citric acid in acid sugar solution containing the flavone derivative (I)) x 100 [formula]

**Q.** For `COc1ccc(-c2cc(=O)c3c(O)c(OC)c(OC)c(OC)c3o2)cc1OC` [Compound 10, 5-hydroxy-3',4',6,7,8-pentamethoxyflavone], which “the savor, as sensed by all the panellers” value [1] is on record?
**A.** better than that of the control

**Q.** What about the “Value of enhancing the sourness Ascending system” value ([2]; ascending system (from low concentration)) of the same compound?
**A.** 120

**Q.** And the “Value of enhancing the sourness Descending system” value ([2]; descending system (from high concentration))?
**A.** 123
